According to patent publication US10975119B2, “Selective cysteine protease inhibitors and uses thereof” (Genesis Technologies Limited, priority 2011, dated 2021):

Legend:
Format in all cases: biochemical
Caspase-2 = target: T1, Caspase-2 (Homo sapiens, UniProt P42575); test: Caspase-2 inhibitor screening assay (BioVision kit, VDVAD-AFC); conditions: for inhibition at 10 µM: read-out: % Inhibition at 10 uM Casp2; for inhibition at 100 µM: read-out: % Inhibition at 100 uM Casp2; for IC50: read-out: IC50 Casp2
T1 construct: mixing the compounds with the respective active caspases; purchased BioVision K152-100
T1 sequence (P42575 170-325 limits assumed): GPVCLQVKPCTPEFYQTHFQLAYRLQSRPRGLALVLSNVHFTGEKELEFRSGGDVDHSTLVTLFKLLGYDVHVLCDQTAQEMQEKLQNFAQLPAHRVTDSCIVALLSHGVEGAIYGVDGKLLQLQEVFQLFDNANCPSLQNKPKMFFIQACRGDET
T1 sequence (P42575 334-452 limits assumed): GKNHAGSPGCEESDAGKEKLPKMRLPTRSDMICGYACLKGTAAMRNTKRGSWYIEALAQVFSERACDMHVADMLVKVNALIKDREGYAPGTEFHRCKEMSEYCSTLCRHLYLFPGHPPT
Experimental: (§1) The efficacy of an array of compounds as an inhibitor of the activity of Caspases 1 through 10 were assessed by using the respective Caspase Inhibitor Drug Screening Kits (Caspase-1 Catalog #: K151-100, Caspase-2 Catalog #: K152-100, Caspase-3 Catalog #: K153-100, Caspase-4 Catalog #: K154-100, Caspase-5 Catalog #: K155-100, Caspase-6 Catalog #: K156-100, Caspase-7 Catalog #: K157-100, Caspase-8 Catalog #: K158-100, Caspase-9 Catalog #: K159-100, Caspase-10 Catalog #: K160-100, BioVision) following the instructions of the manufacturer. […] Active caspases cleaved their respective synthetic substrates to release free AFC, which was then quantified by fluorometry.
(§2) Briefly, the compounds were first tested at 2 concentrations (10 uM and 100 uM final) to determine if there is a hit. […] Each condition was tested in duplicates. […] For some samples, a smaller range of concentrations was tested depending on the % Inhibition results at 10 uM and 100 uM. Results were summarized in Tables 2, 3, and 4 herein after. Table 2 represents the IC50 values (uM) of the test compounds as inhibitors of the activity of the various caspases.
(§3) (*) RFU (no inhibitor control)—RFU (compound at a specific concentration)
(§4) RFU (no inhibitor control)

Caspase-3 = target: T2, Caspase-3 (Homo sapiens, UniProt P42574); test: Caspase-3 inhibitor screening assay (BioVision kit, DEVD-AFC); conditions: for inhibition at 10 µM: read-out: % Inhibition at 10 uM Casp3; for inhibition at 100 µM: read-out: % Inhibition at 100 uM Casp3; for IC50: read-out: IC50 Casp3
T2 construct: mixing the compounds with the respective active caspases; purchased BioVision K153-100
T2 sequence (P42574 29-175 limits assumed): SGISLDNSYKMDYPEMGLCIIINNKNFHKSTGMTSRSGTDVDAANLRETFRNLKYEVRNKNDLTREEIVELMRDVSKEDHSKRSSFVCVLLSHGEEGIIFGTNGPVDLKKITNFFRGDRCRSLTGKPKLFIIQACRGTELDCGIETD
T2 sequence (P42574 176-277 limits assumed): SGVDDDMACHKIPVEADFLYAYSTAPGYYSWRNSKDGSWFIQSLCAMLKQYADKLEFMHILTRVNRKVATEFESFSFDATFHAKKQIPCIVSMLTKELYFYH
Experimental: as §1, §2, §3, §4

Caspase-4 = target: T3, Caspase-4 (Homo sapiens, UniProt P49662); test: Caspase-4 inhibitor screening assay (BioVision kit, LEVD-AFC); conditions: for inhibition at 10 µM: read-out: % Inhibition at 10 uM Casp4; for inhibition at 100 µM: read-out: % Inhibition at 100 uM Casp4; for IC50: read-out: IC50 Casp4
T3 construct: mixing the compounds with the respective active caspases; purchased BioVision K154-100
T3 sequence (P49662 81-270 limits assumed): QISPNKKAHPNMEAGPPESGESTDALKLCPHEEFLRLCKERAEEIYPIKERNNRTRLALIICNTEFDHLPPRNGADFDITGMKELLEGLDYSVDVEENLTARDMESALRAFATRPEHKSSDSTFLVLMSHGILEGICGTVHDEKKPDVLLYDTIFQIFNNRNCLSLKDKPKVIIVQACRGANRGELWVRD
T3 sequence (P49662 290-377 limits assumed): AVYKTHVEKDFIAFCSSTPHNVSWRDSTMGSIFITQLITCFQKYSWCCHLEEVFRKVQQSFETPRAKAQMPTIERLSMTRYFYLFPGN
Experimental: as §1, §2, §3, §4

Caspase-8 = target: T4, Caspase-8 (Homo sapiens, UniProt Q14790); test: Caspase-8 inhibitor screening assay (BioVision kit, IETD-AFC); conditions: for inhibition at 10 µM: read-out: % Inhibition at 10 uM Casp8; for inhibition at 100 µM: read-out: % Inhibition at 100 uM Casp8; for IC50: read-out: IC50 Casp8
T4 construct: mixing the compounds with the respective active caspases; purchased BioVision K158-100
Experimental: as §1, §2, §3, §4

T4 sequence (Q14790 217-374 limits assumed): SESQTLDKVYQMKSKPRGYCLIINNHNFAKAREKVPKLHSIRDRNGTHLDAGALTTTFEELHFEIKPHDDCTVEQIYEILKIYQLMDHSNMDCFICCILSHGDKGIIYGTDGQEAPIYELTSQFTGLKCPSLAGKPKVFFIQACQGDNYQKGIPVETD
T4 sequence (Q14790 385-479 limits assumed): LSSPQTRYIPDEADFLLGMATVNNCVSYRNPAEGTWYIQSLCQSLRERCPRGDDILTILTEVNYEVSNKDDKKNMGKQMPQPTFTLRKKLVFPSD

Structure (SMILES) | inhibition at 10 µM (Caspase-2) | inhibition at 100 µM (Caspase-2) | IC50 (Caspase-2) | inhibition at 10 µM (Caspase-3) | inhibition at 100 µM (Caspase-3) | IC50 (Caspase-3) | inhibition at 10 µM (Caspase-4) | inhibition at 100 µM (Caspase-4) | IC50 (Caspase-4) | inhibition at 10 µM (Caspase-8) | inhibition at 100 µM (Caspase-8) | IC50 (Caspase-8)
CC(C)[C@H](NC(=O)c1ccc2ccccc2n1)C(=O)N[C@H](/C=C/S(C)(=O)=O)CC(=O)O [Compound 16, 2-Quinoline carbonyl-Val-Asp methyl vinyl sulfone] | 1% | 3% | > 100 µM | 5% | 30% | > 100 µM | 0% | 0% | > 100 µM | 5% | 14% | > 100 µM
CS(=O)(=O)/C=C/[C@H](CC(=O)O)NC(=O)[C@H](CCC(=O)O)NC(=O)c1ccc2ccccc2n1 [Compound 18, 2-Quinoline carbonyl-Glu-Asp methyl vinyl sulfone] | 0% | 0% | > 100 µM | 4% | 2% | > 100 µM | 0% | 0% | > 100 µM | 0% | 0% | > 100 µM
CC(C)(C)[C@H](NC(=O)c1ccc2ccccc2n1)C(=O)N1CC[C@@H]1C(=O)N[C@H](/C=C/S(C)(=O)=O)CC(=O)O [Compound 20, 2-Quinoline carbonyl-t-Leu-(Azetidine-2-carbonyl)-Asp methyl vinyl sulfone] | 7% | 6% | > 100 µM | 1% | 5% | > 100 µM | 85% | 100% | 1.56 µM | 8% | 23% | > 100 µM
CC(C)(C)OC(=O)CC[C@H](NC(=O)OC(C)(C)C)C(=O)N[C@H](/C=C/S(C)(=O)=O)CC(=O)OC(C)(C)C [Compound 21, Boc-Glu(O—tBu)-Asp (O—tBu)-methyl vinyl sulfone] | 14% | 18% | > 100 µM | 0% | 4% | > 100 µM | 0% | 4% | > 100 µM | 3% | 4% | > 100 µM
CS(=O)(=O)/C=C/[C@H](CC(=O)O)NC(=O)[C@@H](N)CCC(=O)O [Compound 22, Glu-Asp methylsulfone] | 12% | 13% | > 100 µM | 0% | 0% | > 100 µM | 0% | 0% | > 100 µM | 3% | 7% | > 100 µM
CS(=O)(=O)/C=C/[C@H](CC(=O)O)NC(=O)[C@H]1CCC(=O)N1 [Compound 24, (2-Pyrrolidinone-5-carbonyl)-Asp methyl vinyl sulfone] | 0% | 0% | > 100 µM | 0% | 0% | > 100 µM | 1% | 0% | > 100 µM | 0% | 0% | > 100 µM
